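Step 1: Grow cells in 96-well plates. Step 2: Expose to compound for 48 hours at 5 concentrations. Step 3: Interpolate endpoints linearly; if unreached, use highest concentration. GI50 = concentration required for 50% inhibition of growth.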 Activity calls are given as the source filed them. Rule as the data show it: active = GI50 up to about 1.1 µM and inactive = higher.
Experiments:
Experiment in all cases: growth of human tumour cells (NCI), 48 h
[1] = system: SF-539
[2] = system: NCI-H23
[3] = system: MDA-N
[4] = system: U-251
[5] = system: MCF7
[6] = system: SR
[7] = system: UACC-62
[8] = system: A498
[9] = system: 786-0
[10] = system: SN12C
[11] = system: PC-3
[12] = system: K562
[13] = system: NCI-H522
[14] = system: SK-MEL-28
[15] = system: HOP-62
[16] = system: SF-295
[17] = system: KM12
[18] = system: OVCAR-8
[19] = system: UACC-257
[20] = system: SNB-19

Row | SMILES | GI50 [1] | GI50 [2] | GI50 [3] | GI50 [4] | GI50 [5] | GI50 [6] | GI50 [7] | GI50 [8] | GI50 [9] | GI50 [10] | GI50 [11] | GI50 [12] | GI50 [13] | GI50 [14] | GI50 [15] | GI50 [16] | GI50 [17] | GI50 [18] | GI50 [19] | GI50 [20]
1 | COC1C(O)C(C)OC(OC2C(Oc3cccc4c(O)c5c(=O)oc6ccc(C)c7c(=O)oc(c34)c5c67)OC(C)C(O)C2O)C1O (stereo unspecified) | 1.51 µM (inactive) | 1.28 µM (inactive) | 2.01 µM (inactive) | 0.959 µM (active) | 0.757 µM (active) | 0.373 µM (active) | 1.17 µM (inactive) | 2.04 µM (inactive) | 0.91 µM (active) | 2.52 µM (inactive) | 4.04 µM (inactive) | 0.804 µM (active) | 0.871 µM (active) | 1.6 µM (inactive) | 1.77 µM (inactive) | 1.29 µM (inactive) | 1.64 µM (inactive) | 1.15 µM (inactive) | 2.31 µM (inactive) | 
2 | CCCCCCCCCCCCCC1=C(O)C(=O)C(CC2=C(O)C(=O)C(CCCCCCCCCCCCC)=C(O)C2=O)=C(O)C1=O | > 100 µM (inactive) | > 100 µM (inactive) | > 100 µM (inactive) | 68.2 µM (inactive) | > 100 µM (inactive) | 54.1 µM (inactive) | > 100 µM (inactive) | 90.4 µM (inactive) | > 100 µM (inactive) | > 100 µM (inactive) | > 100 µM (inactive) | 66.1 µM (inactive) | > 100 µM (inactive) | > 100 µM (inactive) |  | 52 µM (inactive) | > 100 µM (inactive) | > 100 µM (inactive) | > 100 µM (inactive) | 27.9 µM (inactive)
3 | CN1C(=O)C2(C=CC(O)CC2)c2ccccc21 (stereo unspecified) |  | > 100 µM (inactive) | > 100 µM (inactive) | > 100 µM (inactive) | > 100 µM (inactive) | > 100 µM (inactive) | > 100 µM (inactive) | > 100 µM (inactive) | > 100 µM (inactive) | > 100 µM (inactive) | > 100 µM (inactive) | > 100 µM (inactive) | > 100 µM (inactive) | > 100 µM (inactive) | > 100 µM (inactive) | > 100 µM (inactive) | > 100 µM (inactive) | > 100 µM (inactive) | > 100 µM (inactive) | > 100 µM (inactive)
4 | COc1ccc(NC(=O)CSC(=O)c2ccccc2)c(SCCSSCCSc2cc(OC)ccc2NC(=O)CSC(=O)c2ccccc2)c1 | > 100 µM (inactive) | 73.3 µM (inactive) | > 100 µM (inactive) | > 100 µM (inactive) | 66.5 µM (inactive) | 3.75 µM (inactive) | > 100 µM (inactive) | > 100 µM (inactive) | > 100 µM (inactive) | > 100 µM (inactive) | > 100 µM (inactive) |  | > 100 µM (inactive) |  | > 100 µM (inactive) | > 100 µM (inactive) | 8.07 µM (inactive) | > 100 µM (inactive) | > 100 µM (inactive) | > 100 µM (inactive)
5 | Cc1ccc([N+](=O)[O-])cc1S(=O)(=O)Nc1ccc(C2=NN(S(=O)(=O)c3cc([N+](=O)[O-])ccc3C)C(c3ccccc3O)C2)cc1 (stereo unspecified) |  | 53.5 µM (inactive) | > 100 µM (inactive) | 30.6 µM (inactive) | > 100 µM (inactive) | > 100 µM (inactive) | 58.5 µM (inactive) | 10.4 µM (inactive) | 30.8 µM (inactive) | > 100 µM (inactive) | > 100 µM (inactive) | 31.6 µM (inactive) | 44 µM (inactive) | > 100 µM (inactive) | 47.5 µM (inactive) | 34.4 µM (inactive) | > 100 µM (inactive) | > 100 µM (inactive) | > 100 µM (inactive) | 42.4 µM (inactive)
6 | Cc1c(C(=O)OCc2ccccc2)[n+]([O-])c2ccccc2[n+]1[O-] | 42.1 µM (inactive) | 33.7 µM (inactive) | 41.6 µM (inactive) | 40.8 µM (inactive) | 19.5 µM (inactive) | 19.5 µM (inactive) | 25.6 µM (inactive) | 36.1 µM (inactive) | 44.1 µM (inactive) | 31.3 µM (inactive) | 23.1 µM (inactive) | 37.6 µM (inactive) |  | 66.1 µM (inactive) | 22.3 µM (inactive) | 32.7 µM (inactive) | 28.1 µM (inactive) | 48.6 µM (inactive) | 17.8 µM (inactive) | 57.3 µM (inactive)
7 | O=c1c2ccccc2oc2c1ccc1ncccc12 | 19.6 µM (inactive) | 16.2 µM (inactive) | 20 µM (inactive) |  | 8.55 µM (inactive) | 8.87 µM (inactive) | 11 µM (inactive) | 5.01 µM (inactive) | 12.3 µM (inactive) | 10.6 µM (inactive) | 22.4 µM (inactive) | 24.7 µM (inactive) | 12.7 µM (inactive) | 23 µM (inactive) | 15 µM (inactive) | 12.9 µM (inactive) | 24.2 µM (inactive) | 11.8 µM (inactive) | 20.7 µM (inactive) | 
